Columns and labels:
Assay type in all cases: biochemical
Dnmt1 [1] = target: T1, Dnmt1 (Mus musculus, UniProt P13864, N1580A); experiment: single-turnover azidoalkylation kinetics on hemimethylated 25-mer DNA
Dnmt1 [2] = target: T2, Dnmt1 (Mus musculus, UniProt P13864, R1576A/N1580A); experiment: as above
Dnmt1 [3] = target: Dnmt1 (Mus musculus, UniProt P13864); experiment: single-turnover methylation kinetics on hemimethylated 25-mer DNA
Dnmt1 [4] = target: T1, Dnmt1; experiment: as above
Dnmt1 [5] = target: T2, Dnmt1; experiment: as above

T1 sequence (P13864 291-1620 N1580A): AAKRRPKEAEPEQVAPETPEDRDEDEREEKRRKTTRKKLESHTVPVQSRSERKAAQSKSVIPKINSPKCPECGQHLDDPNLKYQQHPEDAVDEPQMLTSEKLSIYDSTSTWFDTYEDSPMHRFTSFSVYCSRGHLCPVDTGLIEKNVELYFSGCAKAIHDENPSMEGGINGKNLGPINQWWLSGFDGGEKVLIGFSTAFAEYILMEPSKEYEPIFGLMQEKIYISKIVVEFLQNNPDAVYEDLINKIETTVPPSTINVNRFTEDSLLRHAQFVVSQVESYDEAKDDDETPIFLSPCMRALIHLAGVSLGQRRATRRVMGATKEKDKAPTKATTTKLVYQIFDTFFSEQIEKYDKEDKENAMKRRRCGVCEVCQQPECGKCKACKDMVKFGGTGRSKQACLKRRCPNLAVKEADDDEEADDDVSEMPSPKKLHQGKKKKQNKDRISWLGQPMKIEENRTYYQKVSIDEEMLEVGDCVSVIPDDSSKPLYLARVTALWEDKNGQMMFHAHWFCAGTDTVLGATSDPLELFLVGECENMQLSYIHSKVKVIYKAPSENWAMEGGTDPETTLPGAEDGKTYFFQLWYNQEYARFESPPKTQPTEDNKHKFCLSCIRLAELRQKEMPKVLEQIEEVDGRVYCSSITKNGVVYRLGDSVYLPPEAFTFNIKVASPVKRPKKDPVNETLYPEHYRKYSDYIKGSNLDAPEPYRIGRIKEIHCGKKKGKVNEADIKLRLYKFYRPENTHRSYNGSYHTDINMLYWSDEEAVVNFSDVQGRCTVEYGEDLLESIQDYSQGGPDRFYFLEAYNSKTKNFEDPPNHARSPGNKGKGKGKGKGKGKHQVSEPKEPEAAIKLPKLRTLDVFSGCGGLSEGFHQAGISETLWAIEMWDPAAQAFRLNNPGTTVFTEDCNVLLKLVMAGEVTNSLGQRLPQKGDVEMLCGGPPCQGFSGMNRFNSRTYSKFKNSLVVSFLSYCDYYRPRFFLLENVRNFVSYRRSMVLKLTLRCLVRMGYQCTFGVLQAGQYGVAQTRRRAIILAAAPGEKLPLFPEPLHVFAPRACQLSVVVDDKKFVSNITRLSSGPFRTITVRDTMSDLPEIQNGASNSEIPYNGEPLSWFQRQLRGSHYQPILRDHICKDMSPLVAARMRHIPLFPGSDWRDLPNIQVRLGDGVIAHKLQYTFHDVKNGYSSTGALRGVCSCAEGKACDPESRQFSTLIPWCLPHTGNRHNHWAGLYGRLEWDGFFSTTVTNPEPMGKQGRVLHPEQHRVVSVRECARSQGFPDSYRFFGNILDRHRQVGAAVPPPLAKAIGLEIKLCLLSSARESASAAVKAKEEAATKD
T2 sequence (P13864 291-1620 R1576A/N1580A): as the sequence (P13864 291-1620 N1580A) above, with R1286A counted along it
Dnmt1 (Mus musculus, UniProt P13864), sequence (P13864 291-1620): as the sequence (P13864 291-1620 N1580A) above, with A1290N counted along it

kchem^Ado-6-azide azidoalkylation / min^-1 (Dnmt1 [1]) [min⁻¹]	kchem^Ado-6-azide azidoalkylation / min^-1 (Dnmt1 [2]) [min⁻¹]	kchem^AdoMet methylation / min^-1 (Dnmt1 [3]) [min⁻¹]	kchem^AdoMet methylation / min^-1 (Dnmt1 [4]) [min⁻¹]	kchem^AdoMet methylation / min^-1 (Dnmt1 [5]) [min⁻¹]	SMILES
1.4 ± 0.13	0.27 ± 0.025				[N-]=[N+]=NCCCC#CC[S+](CC[C@H](N)C(=O)O)C[C@H]1O[C@@H](n2cnc3c(N)ncnc32)[C@H](O)[C@@H]1O (mixture of isomers) [Ado-6-azide]
		3.0 ± 0.13	0.104 ± 0.002	0.035 ± 0.002	C[S+](CC[C@H](N)C(=O)[O-])C[C@H]1O[C@@H](n2cnc3c(N)ncnc32)[C@H](O)[C@@H]1O (some centres unmarked) [AdoMet]
